ChEMBL document CHEMBL1201862, “PubChem BioAssay data set” (2004)
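Interpolation was linear, between the two tested concentrations surrounding the appropriate level; five concentrations were tested over 48 hours in 96-well plates. Abbreviation: GI50, concentration required for 50% inhibition of growth.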 Calls of active or inactive are those of the source. Cut-off read from the data, not from the text of the source: active = GI50 up to about 1.1 µM and inactive = higher. Square brackets hold non-standard residues; d marks the D form. Peptide text beside a SMILES is read from it. pGlu = O=C1CC[C@@H](C(=O)O)N1; Thz = O=C(O)[C@@H]1CSCN1

Experiments:
Test in all cases: NCI tumour cell line growth inhibition, 48 h
T47D = tested on: T47D
RPMI-8226 = tested on: RPMI-8226
SW-620 = tested on: SW-620
SF-268 = tested on: SF-268
NCI-H23 = tested on: NCI-H23
Hs-578T = tested on: Hs-578T
CAKI-1 = tested on: CAKI-1
M14 = tested on: M14
OVCAR-5 = tested on: OVCAR-5
PC-3 = tested on: PC-3
OVCAR-4 = tested on: OVCAR-4
HOP-92 = tested on: HOP-92
SK-MEL-5 = tested on: SK-MEL-5
SF-295 = tested on: SF-295
NCI-H460 = tested on: NCI-H460
OVCAR-3 = tested on: OVCAR-3
OVCAR-8 = tested on: OVCAR-8
HOP-62 = tested on: HOP-62
K562 = tested on: K562
UACC-62 = tested on: UACC-62

| Compound | GI50 (T47D) | GI50 (RPMI-8226) | GI50 (SW-620) | GI50 (SF-268) | GI50 (NCI-H23) | GI50 (Hs-578T) | GI50 (CAKI-1) | GI50 (M14) | GI50 (OVCAR-5) | GI50 (PC-3) | GI50 (OVCAR-4) | GI50 (HOP-92) | GI50 (SK-MEL-5) | GI50 (SF-295) | GI50 (NCI-H460) | GI50 (OVCAR-3) | GI50 (OVCAR-8) | GI50 (HOP-62) | GI50 (K562) | GI50 (UACC-62) |
| --- | --- | --- | --- | --- | --- | --- | --- | --- | --- | --- | --- | --- | --- | --- | --- | --- | --- | --- | --- | --- |
| COc1cc(C(=O)OC2CC(C)=CC[C@@]3(C)CC[C@](O)(C(C)C)C23)ccc1O (stereo not given in full) | 22.3 µM (inactive) | 25.6 µM (inactive) | 28.5 µM (inactive) | 19.5 µM (inactive) | 17.8 µM (inactive) | 17.3 µM (inactive) | 16.3 µM (inactive) | 17 µM (inactive) | 18 µM (inactive) | 17.4 µM (inactive) | 15.9 µM (inactive) | 16.3 µM (inactive) | 17.5 µM (inactive) | 21.7 µM (inactive) | 16.6 µM (inactive) | 18.5 µM (inactive) | 18.2 µM (inactive) | 17.2 µM (inactive) | 17.4 µM (inactive) | – |
| O=C(CCCl)NN=C1NCCN1 | > 100 µM (inactive) | > 100 µM (inactive) | > 100 µM (inactive) | > 100 µM (inactive) | > 100 µM (inactive) | > 100 µM (inactive) | – | > 100 µM (inactive) | > 100 µM (inactive) | > 100 µM (inactive) | > 100 µM (inactive) | > 100 µM (inactive) | > 100 µM (inactive) | > 100 µM (inactive) | > 100 µM (inactive) | > 100 µM (inactive) | > 100 µM (inactive) | > 100 µM (inactive) | > 100 µM (inactive) | > 100 µM (inactive) |
| O=C1/C(=C\c2ccc([N+](=O)[O-])o2)SC2NC(COc3ccc(Cl)cc3)=NN12 (stereo not given) | 1.79 µM (inactive) | 3.21 µM (inactive) | 2.43 µM (inactive) | 3.48 µM (inactive) | 10 µM (inactive) | 24.4 µM (inactive) | 13.1 µM (inactive) | 2.31 µM (inactive) | 21.2 µM (inactive) | 9.73 µM (inactive) | 1.87 µM (inactive) | 2.09 µM (inactive) | 12.8 µM (inactive) | 19.3 µM (inactive) | 19.2 µM (inactive) | 6.27 µM (inactive) | 3.18 µM (inactive) | 22.5 µM (inactive) | 2.99 µM (inactive) | – |
| COc1ccc(-c2oc3cc(OC)c(OC)c(O)c3c(=O)c2OC)cc1 | 28.4 µM (inactive) | > 100 µM (inactive) | > 100 µM (inactive) | 24.5 µM (inactive) | – | 24 µM (inactive) | 10.5 µM (inactive) | > 100 µM (inactive) | > 100 µM (inactive) | 39.8 µM (inactive) | 89.9 µM (inactive) | 14.5 µM (inactive) | > 100 µM (inactive) | 20.8 µM (inactive) | > 100 µM (inactive) | – | 43.2 µM (inactive) | 30.3 µM (inactive) | > 100 µM (inactive) | 21.4 µM (inactive) |
| CC1=C(C#N)C(=C(C#N)C#N)OC1(C)Cc1ccccc1 (stereo not given) | 29.9 µM (inactive) | 42.7 µM (inactive) | 42.9 µM (inactive) | 49.5 µM (inactive) | 36.7 µM (inactive) | 30 µM (inactive) | 24.7 µM (inactive) | 30.8 µM (inactive) | 61.1 µM (inactive) | 36.2 µM (inactive) | 21.9 µM (inactive) | 19.7 µM (inactive) | 67.8 µM (inactive) | 67.3 µM (inactive) | – | 14.6 µM (inactive) | 65.5 µM (inactive) | 58.9 µM (inactive) | 39.6 µM (inactive) | 20.6 µM (inactive) |
| COC(=O)[C@@]1(NC(=O)C(CC(=O)OC(C)(C)C)NC(=O)OC(C)(C)C)C[C@H]1C (stereo not given in full) | > 100 µM (inactive) | > 100 µM (inactive) | > 100 µM (inactive) | > 100 µM (inactive) | > 100 µM (inactive) | > 100 µM (inactive) | > 100 µM (inactive) | > 100 µM (inactive) | > 100 µM (inactive) | > 100 µM (inactive) | > 100 µM (inactive) | – | > 100 µM (inactive) | > 100 µM (inactive) | > 100 µM (inactive) | > 100 µM (inactive) | > 100 µM (inactive) | > 100 µM (inactive) | > 100 µM (inactive) | > 100 µM (inactive) |
| CCn1c(-c2ccccc2)nc2c1C(=O)c1ccccc1C2=O | 2.22 µM (inactive) | 36.6 µM (inactive) | 32.1 µM (inactive) | – | 21.8 µM (inactive) | 27.2 µM (inactive) | – | 15.4 µM (inactive) | 32.9 µM (inactive) | 10.2 µM (inactive) | 12.5 µM (inactive) | 24.2 µM (inactive) | 11.2 µM (inactive) | 30.1 µM (inactive) | 20 µM (inactive) | 5.89 µM (inactive) | 14 µM (inactive) | 42.5 µM (inactive) | 25.9 µM (inactive) | 15.8 µM (inactive) |
| CCOC(=O)NN(C(=O)OCC)c1ccc(/N=N/c2ccc(OC)cc2)n1C | 21 µM (inactive) | 19.9 µM (inactive) | – | – | 32.6 µM (inactive) | 65.8 µM (inactive) | – | 22.8 µM (inactive) | 32.7 µM (inactive) | 15.3 µM (inactive) | 36.9 µM (inactive) | 24.8 µM (inactive) | 17.5 µM (inactive) | 37.4 µM (inactive) | – | 18.5 µM (inactive) | 35.5 µM (inactive) | 26.9 µM (inactive) | 23.1 µM (inactive) | 99.1 µM (inactive) |
| COc1ccc2c(c1)/C(=C\c1c(Cl)nc3sc(C)cn13)C(=O)N2 | 3.99 µM (inactive) | 2.61 µM (inactive) | 0.826 µM (active) | 4.31 µM (inactive) | 4.12 µM (inactive) | 2.74 µM (inactive) | 3.37 µM (inactive) | 2.69 µM (inactive) | 9.59 µM (inactive) | 2.78 µM (inactive) | – | 10.6 µM (inactive) | 2.16 µM (inactive) | 1.74 µM (inactive) | 2.51 µM (inactive) | 2.41 µM (inactive) | 4.06 µM (inactive) | 6.4 µM (inactive) | 0.521 µM (active) | 3.29 µM (inactive) |
| CCC(CS(=O)(=O)O)[N+](=O)[O-] (stereo not given) | > 100 µM (inactive) | > 100 µM (inactive) | > 100 µM (inactive) | > 100 µM (inactive) | > 100 µM (inactive) | > 100 µM (inactive) | > 100 µM (inactive) | > 100 µM (inactive) | > 100 µM (inactive) | > 100 µM (inactive) | > 100 µM (inactive) | – | > 100 µM (inactive) | > 100 µM (inactive) | > 100 µM (inactive) | > 100 µM (inactive) | > 100 µM (inactive) | > 100 µM (inactive) | > 100 µM (inactive) | > 100 µM (inactive) |
| CN(C)c1nc2oc(-c3ccccc3)c(-c3ccccc3)c2c2nnnn12 | > 100 µM (inactive) | > 100 µM (inactive) | > 100 µM (inactive) | > 100 µM (inactive) | > 100 µM (inactive) | > 100 µM (inactive) | > 100 µM (inactive) | > 100 µM (inactive) | > 100 µM (inactive) | – | > 100 µM (inactive) | > 100 µM (inactive) | > 100 µM (inactive) | > 100 µM (inactive) | – | – | > 100 µM (inactive) | – | > 100 µM (inactive) | > 100 µM (inactive) |
| CCO/C(=N/S(=O)(=O)C(F)(F)F)N(C(C)C)C(C)C | > 100 µM (inactive) | > 100 µM (inactive) | > 100 µM (inactive) | > 100 µM (inactive) | > 100 µM (inactive) | > 100 µM (inactive) | > 100 µM (inactive) | > 100 µM (inactive) | > 100 µM (inactive) | > 100 µM (inactive) | > 100 µM (inactive) | > 100 µM (inactive) | > 100 µM (inactive) | – | > 100 µM (inactive) | – | > 100 µM (inactive) | – | – | > 100 µM (inactive) |
| N#Cc1nc(-c2cc([N+](=O)[O-])cc([N+](=O)[O-])c2)oc1N | > 10 µM (inactive) | > 10 µM (inactive) | > 10 µM (inactive) | > 10 µM (inactive) | > 10 µM (inactive) | > 10 µM (inactive) | > 10 µM (inactive) | > 10 µM (inactive) | – | > 10 µM (inactive) | > 10 µM (inactive) | > 10 µM (inactive) | > 10 µM (inactive) | > 10 µM (inactive) | > 10 µM (inactive) | – | > 10 µM (inactive) | > 10 µM (inactive) | > 10 µM (inactive) | > 10 µM (inactive) |
| O=C1CC[C@@H](C(=O)N2CSC[C@H]2C(=O)O)N1 [PIDOTIMOD] ([pGlu]-[Thz]-OH) | > 100 µM (inactive) | > 100 µM (inactive) | > 100 µM (inactive) | > 100 µM (inactive) | > 100 µM (inactive) | > 100 µM (inactive) | > 100 µM (inactive) | > 100 µM (inactive) | > 100 µM (inactive) | > 100 µM (inactive) | – | – | > 100 µM (inactive) | > 100 µM (inactive) | > 100 µM (inactive) | > 100 µM (inactive) | > 100 µM (inactive) | > 100 µM (inactive) | > 100 µM (inactive) | > 100 µM (inactive) |
| CSc1c(C(=O)Nc2ccc(Cl)cc2)c(N)n(N)c(=O)c1C#N | 31.3 µM (inactive) | 57.4 µM (inactive) | 95.5 µM (inactive) | > 100 µM (inactive) | 61.5 µM (inactive) | > 100 µM (inactive) | 34.2 µM (inactive) | 51.6 µM (inactive) | 58.9 µM (inactive) | 79.8 µM (inactive) | 68.5 µM (inactive) | – | > 100 µM (inactive) | – | > 100 µM (inactive) | 48.8 µM (inactive) | 55.2 µM (inactive) | – | 46.6 µM (inactive) | 24.5 µM (inactive) |
